Laboratory results published in publication PMC6220787 (Clinical Pharmacology in Drug Development, 2018).
Like-named read-outs stand apart in the source and are kept apart here. Blank lines part the entries; values can stand above or below the compound they belong to.

Tests used:
[1] = Pharmacokinetics of chlorogenic acids; assay type: in vivo, human; conditions: for AUC0–4 h / tmax: analyte in blood after product 1, oral, healthy male subjects; for AUC0–4 h: mean (SD); for tmax: median (min, max)
[2] = analytical recovery test in plasma; cited from earlier work
[3] = 60 mg of caffeine, single oral dose, healthy male subjects
[4] = assay type: in vivo, human
[5] = cited from earlier work
[6] = healthy subjects, 412 μmol of CGA in 200 mL of coffee; cited from earlier work
[7] = after product 1, relative to 4‐CQA
[8] = after product 1, relative to 5‐CQA

AUC0–4 h greater than that of 4‐CQA [1, 7]: ~41%
concentration (Cmax) greater than that of 4‐CQA [1, 7]: 60%
AUC0–4 h greater than that of 5‐CQA [1, 8]: 42.5%
concentration (Cmax) greater than that of 5‐CQA [1, 8]: 58%
Structure (SMILES): O=C(/C=C/c1ccc(O)c(O)c1)O[C@@H]1C[C@](O)(C(=O)O)C[C@@H](O)[C@H]1O [3‐CQA, 3‐O‐caffeoylquinic acid]

AUC0–4 h [1]: 16.1 (9.80) ng·h/mL
tmax [1]: 1.00 (0.75, 4.00) h
Structure (SMILES): O=C(/C=C/c1ccc(O)c(O)c1)O[C@H]1[C@H](O)C[C@](O)(C(=O)O)C[C@H]1O [4‐CQA, 4‐O‐caffeoylquinic acid]

AUC0–4 h [1]: 15.7 (10.4) ng·h/mL
tmax [1]: 1.50 (0.75, 2.50) h
Structure (SMILES): O=C(/C=C/c1ccc(O)c(O)c1)O[C@@H]1C[C@](O)(C(=O)O)C[C@@H](O)[C@H]1O [5‐CQA, 5‐O‐caffeoylquinic acid]
hydrolyzed into caffeic acid [2]: ~7%

GMR (90%CI) of AUC0–4 h of caffeine ([4]; geometric least‐squares mean ratio, product 1 to product 2): 98.33%
AUC(0-t) ([4]; male, human, serum, oral, 60 mg): 5600 ng·h/mL
Cmax ([4]; male, human, serum, po, 60 mg): 2090 ng/mL
tmax ([4]; male, human, serum, po, 60 mg): 0.63 h
Structure (SMILES): Cn1c(=O)c2c(ncn2C)n(C)c1=O [Product 2, caffeine]
adverse events [3]: no adverse events

Structure (SMILES): Cn1c(=O)c2c(ncn2C)n(C)c1=O [caffeine]
caffeine half‐life ([5]; adult men, dose of 4 mg/kg): 2.5 to 4.5 h
mean half‐life of caffeine in plasma ([5]; healthy individuals): about 5 hours
known half‐life of caffeine ([5]; stated as known): ~5 h
known tmax of caffeine ([5]; stated as known): approximately 60 minutes

Structure (SMILES): COc1cc(CCC(=O)O)ccc1O [dihydroferulic acid]
tmax in plasma [6]: 5.2 h
